“Also recorded” adds a separate entry of the source.
Legend:
[1] = system: transgenic thymocytes; test: Negative selection of transgenic thymocytes after i.p. peptide injection into TCR^TgTCRα^− mice (wild type A^b); type: in vivo, mouse
Protocol: Flow cytometry analysis. Monoclonal antibodies specific for CD4(RM4-5), CD8(53-6.7), VβB8(F23.1), CD69(H1.2F3), CD44(IM7) and CD62L(MEL-14) were purchased from PharMingen (San Diego, Calif.) and used according to manufacturer's recommendations. Cells were analyzed using a FACSCalibur instrument (Becton Dickinson, San Jose, Calif.) and CellQuest software. For intracellular stain cells were first stained for CD4 and CD8, fixed in 2% paraformaldehyde, permeabilized in 0.1% Tween-20 and stained with anti-bcl-2 antibody (Pharmingen) according to manufacturer instruction.
Peptide injections and surgical procedures. TCR^TgTCRα^− and TCR^TgTCRαH2-M^−Ii^− were injected i.p. with agonist and control peptides dissolved in PBS. After indicated time mice were sacrificed, thymus and lymph nodes were collected and single cell suspensions were prepared. Pups were injected with 2 μg of peptide subcutaneously 12-24 hours after birth and thymi were transplanted into recipient mice 24 hours after injection. 5-8 week old TCR^TgTCRα^− H2-M^−Ii^− mice were used for thymectomy or as thymic transplant recipients. Surgical procedures were performed as described (Coligan et al., 1997). Mice were handled according with the institutional guidance.
Characterization of peptide agonists for the PCC specific transgenic αβTCR. To examine the role of peptides during positive selection in vivo, the inventors generated transgenic mice expressing class II restricted TCR specific for analogs of a pigeon cytochrome C peptide PCC(43-58) presented by the A molecule (Kraj et al., 2001). This receptor recognizes analogs of PCC(43-58) in which aspartic acid in position 50 is replaced by amino acids with neutral/hydrophobic (PCC50V, PCC50V54A, PCC46A49A50V54A, PCC50L, PCC50F) side chains (FIG. 6 and FIG. 9). The TCR transgenic mice were backcrossed to C57BL6 TCRα^− knockout mice so that almost all T cells expressing transgenic TCR become CD4^+ T cells (FIG. 4A and FIG. 10A). Initially, the inventors examined the capacity of agonist peptides to induce negative selection of transgenic T cells.

[2] = system: transgenic CD4^+ T cells; test: Neonatal thymus transplant under the kidney capsule of TCRα^−H2-M^−Ii^− recipients with selecting peptide; type: in vivo, mouse
Description: Since the selecting peptide is an agonist, in a specific embodiment of the present invention the observed phenomenon results from the expansion of a small number of peripheral transgenic CD4^+ T cells rather than from induced positive selection. To test this possibility, two types of experiments have been performed. In the first experiment, the PCC TgTCRα^−H-2M^−Ii^− mice were thymectomized and then injected with the PCC50V54A peptide. Two weeks after injection, these mice were sacrificed and the number of peripheral CD4^+ T cells was counted. […] In the second experiment, the neonatal thymi from TgTCRα^−H-2M^−Ii^− mice were transplanted under the kidney capsule of H-2M^−Ii^− TCRα^− mice, which are devoid of T cells. Two days after surgery, half of the recipient mice were injected with the selecting peptide. After 10 days, recipient mice were sacrificed and the presence of transgenic CD4^+ T cells in the transplanted thymus and lymph nodes was determined by FACS analysis. […] Apparently, CD4^+ T cells appear in the peripheral lymph nodes of PCC TgTCRα^−H-2M^−Ii^− injected with the PCC50V54A peptide as a result of positive selection by this peptide.
Peptide injections and surgical procedures. TCR^TgTCRα^− and TCR^TgTCRαH2-M^−Ii^− were injected i.p. with agonist and control peptides dissolved in PBS. After indicated time mice were sacrificed, thymus and lymph nodes were collected and single cell suspensions were prepared. Pups were injected with 2 μg of peptide subcutaneously 12-24 hours after birth and thymi were transplanted into recipient mice 24 hours after injection. […]
Since the selecting peptide is an agonist, one could argue that the observed phenomenon results from the expansion of a small number of peripheral transgenic CD4^+ T cells rather than from induced positive selection (Martin & Bevan, 1997). […] Two weeks after injection, the mice were sacrificed and the number of peripheral CD4^+ T cells was counted. […] After 10 days, recipient mice were sacrificed and the presence of transgenic CD4^+ T cells in the transplanted thymus and host lymph nodes was determined by FACS analysis. […]

AEGFSYTVANKAKGIT [PCC50V54A, analog of pigeon cytochrome C peptide PCC(43-58)]
negative selection of transgenic thymocytes ([1]; 20 μg i.p., 24 hours, thymus cellularity, annexin V, TUNNEL): does not induce negative selection; also recorded: did not induce negative selection | thymus cellularity ([1]; 20 μg, TgTCRα^−H-2M^−Ii^− or TgTCRα^−A^bwt mice): the same as in control mice | negative selection / deletion of transgenic thymocytes ([1]; 200 μg/mouse i.p., 24 hours): induced profound negative selection; also recorded: induced profound deletion | apoptotic cells by TUNNEL assay and annexin V staining ([1]; after peptide injection, 20 μg): failed to demonstrate apoptotic cells | presence of transgenic CD4^+ T cells in transplanted thymus and host lymph nodes ([2]; donor neonates injected (2 μg) 24 hours before transplantation): found only in mice grafted with thymi from neonates injected with the selecting peptide; also recorded: repopulate peripheral lymph nodes | presence of transgenic CD4^+ T cells in transplanted thymus and lymph nodes ([2]; recipients injected two days after surgery, analysed after 10 days): found only in thymus-grafted mice, injected with the selecting peptide | total number of lymph node cells ([2]; recipients of neonatal thymi injected with the selecting peptide, two weeks after transplantation): 25.5×10^6±4.2
